Source: patent US20040198794A1, “Ondansetron forms and processes of making the same” (priority 2003, published 2004)

Assays:
Type in all cases: physicochemical
[1] = Solvent-induced conversion between forms by slurrying
Source text: It is sensitive to a solvent-induced conversion into a form II defined below by slurrying in some polar solvents, e.g. in methanol or water, while it is inert to the same slurrying or solvent treatment in non-polar solvents. […] Form II is resistant to a solvent-inducing conversion to form I at ambient temperature.

[2] = Storage stability of solid ondansetron forms
[3] = Dissolution and release of microcrystalline ondansetron; settings: particle size smaller than 200 microns
Source text: It has been further discovered that ondansetron base having a particle size smaller than 200 microns (hereinafter “microcrystalline ondansetron”) is more suitable in making pharmaceutical formulations.

[4] = Hydration of solid ondansetron base on exposure to humidity
Source text: After storage of the anhydrate form at humidity exceeding 10% RH, hydrates may be formed. A stable hydrated form comprise 1.3-1.5% of water, this corresponding to approximately 0.25 molar equivalent of water (a hemi-hemihydrate). Accordingly, another ondansetron form of the present invention is an ondansetron hydrate comprising ondansetron and water wherein the amount of water relative to ondansetron is within the range of 0.23-0.27 moles, more preferably 0.24-0.26 moles, per each one mole of ondansetron. Exposure of this or the anhydrated product to enhanced humidity (70% RH) results in a product having about 3% water content which corresponds to a hemihydrate (0.5 molar equivalent of water). Exposure to extreme humidity of about 90% or more leads to a monohydrate form of about 5% water. The most useful hydrated form of ondansetron base is the hemi-hemi hydrate as this is formed under most precipitation conditions and is stable. The above forms I or II are preferably hydrates containing 1.3-1.5% of water.

SMILES: Cc1nccn1CC1CCc2c(c3ccccc3n2C)C1=O (stereo not shown) [Form II]
- solvent-inducing conversion to form I ([1]; ambient temperature): resistant
- form conversion during storage ([2]; prolonged storage at 40° C./75% relative humidity (RH)): partial conversion to Form I
- stability during storage ([2]; room temperature, stored in closed vial): stable

SMILES: Cc1nccn1CC1CCc2c(c3ccccc3n2C)C1=O (stereo not shown) [form I]
- solvent-induced conversion into form II ([1]; slurrying in some polar solvents, e.g. methanol or water): sensitive
- solvent-induced conversion into form II ([1]; slurrying or solvent treatment in non-polar solvents): inert
- stability during storage ([2]; storage at ambient and elevated temperatures): sufficiently stable

SMILES: Cc1nccn1CC1CCc2c(c3ccccc3n2C)C1=O (stereo not shown) [microcrystalline ondansetron]
- dissolution in liquid medium ([3]; making liquid compositions): dissolves more rapidly
- release from the tablet composition [3]: releases more rapidly

SMILES: Cc1nccn1CC1CCc2c(c3ccccc3n2C)C1=O (stereo not shown) [ondansetron base]
- water content after exposure to humidity ([4]; enhanced humidity (70% RH), corresponds to a hemihydrate): about 3%
- water content after exposure to humidity ([4]; extreme humidity of about 90% or more, monohydrate form): about 5%
